pEC50: −log10 of the molar value. Where two headings read alike, the source gives them in different places.
Assays:
HEK293T cells = experiment: HEK293T cytotoxicity; conditions: for HEK293T Cytotoxicity, half-maximal cytotoxicity concentration: HEK293T cells
Method: A previously described method was utilized to evaluate cytotoxicity against HepG2 and HEK293T cells as a measure of general human toxicity. Assay data generated for Plasmodium was analyzed with a Genedata Screener (v13.0-Standard). Inhibitors (puromycin for cytotoxicity and atovaquone for liver-stage parasites) were subtracted from neutral controls to normalize data. The Smart Fit function of the Genedata Analyzer generated dose-response curves that were used to calculate the half-maximal effective concentrations (EC50).

[1] = tested on: liver-stage P. berghei (Pb-Luc sporozoites in HepG2 cells); experiment: microbe, parasite or virus in culture; assay type: cell-based, Plasmodium berghei; conditions: read-out: Liver-Stage P. berghei half-maximal effective concentration (EC50)
Method: Activity against liver-stage P. berghei was quantified for extracts, fractions, and pure compounds using a slightly modified 48 h luminescence-based assay. The salivary gland of infected Anopheles stephensi was dissected to harvest P. berghei-ANKA-GFP-LucSMCON (Pb-Luc) sporozoites (originally received from Dr. Ana Rodriguez of NYU School of Medicine; last round of testing to evaluate pure 1, 3–5 used infected mosquitoes from Elizabeth Winzeler at UCSD and Dennis Kyle at UGA) which were filtered through a 20 μm nylon net filter twice (Steriflip, Millipore, MA), counted with a hemocytometer, and adjusted to achieve a final concentration of 200 sporozoites/1 μL in the assay media (DMEM without Phenol Red (Life Technologies, CA), 5% FBS, and 5 × Pen−Strep and glutamine (Life Technologies, CA)). A Multi-Flo (BioTek, VT) with a 1 μL cassette was used to transfer purified sporozoites, 1 × 10^3 sporozoites per well (5 μL), to assay plates containing HepG2 cells. After incubation at 37 °C for 48 h, a bioluminescence measurement was taken to assess the liver-stage growth. More specifically, media was removed by inverting the plates, and spinning them at 150 × g for 30 s, and 2 μL per well of BrightGlo (Promega, WI) was added for quantification of Pb-Luc viability. The luminescence was measured immediately after addition of the luminescence reagent using an Envision Multilabel Reader (PerkinElmer, MA).

rabbit muscle actin = molecular target: T1, rabbit muscle actin (Oryctolagus cuniculus, UniProt P68135); experiment: actin polymerization assay (pyrene-labeled rabbit muscle actin); assay type: biochemical
T1 construct: purchased Abcam ab239724
From the text: Of the proteins predicted to bind to kakeromamide (1), actin and sortilin were deemed worthy of further evaluation given their higher predicted binding values. However, no in vitro sortilin assay is available. In contrast, actin polymerization assays are frequently employed to assess agents that affect actin dynamics, albeit using mammalian homologs of actin. Since 1 was predicted to bind to both Plasmodium and mammalian actin proteins but only mammalian actin assays are commercially available, an actin polymerization assay that uses pyrene-labeled rabbit muscle actin was employed. Several natural products are known to disrupt actin’s function by either inhibiting or stabilizing polymerization, which could arise from ligand binding. Since apicomplexan actins (including those of Plasmodium) and mammalian actins are relatively divergent, Plasmodium actin might be a useful molecular target. […] Similar activity by 1 could be one possible explanation for the observed increase in actin polymerization with increasing concentrations of 1. Although 1 appears to impact mammalian actin polymerization, future tests evaluating the impact of 1 on Plasmodium actin function would be worthwhile in order to further elucidate whether interactions with actin are relevant to this natural product’s mechanism of action on the malaria parasite.
The computationally predicted binding of 1 to actin was experimentally evaluated using a rabbit muscle actin polymerization assay kit from Abcam (kit ab239724) using the manufacturer’s protocol. Mean signal for n = 3 (actin polymerization control, solvent control, and background) or n = 2 (four different concentrations of latrunculin A and kakeromamide B) replicates was acquired for time points taken every 30 s for 1 h on a Synergy H4 plate reader. The results were plotted in GraphPad Prism 8 with an exponential plateau curve.

[2] = tested on: asexual blood-stage P. falciparum strain Dd2L; experiment: asexual blood-stage P. falciparum assay with SYBR Green detection; assay type: cell-based, Plasmodium falciparum; conditions: for blood-stage antimalarial activity (in words): P. falciparum; for pEC50: Plasmodium falciparum, 72 h
Method: A standard method for evaluating antimalarial activity with asexual blood-stage P. falciparum and SYBR Green detection was used to assess the potency of extracts, fractions, and compounds [50]. Screening media was prepared from complete media supplemented with 0.05% Albumax II (but without human serum). Dr. David Fidock of Columbia University provided P. falciparum strain Dd2L, which was cultured with fresh O+ erythrocytes (TSRI Normal Blood Donation). Compounds were transferred to assay plates using a Labcyte ECHO acoustic liquid handler. Fresh and parasitized erythrocytes were prepared in screening media before inoculating plates (Multi-Flo; BioTek, VT) with a final hematocrit of 2.5% and a final parasitemia of 0.3%. The assay plates were incubated for 72 h in a chamber at 37 °C with a low oxygen gas formulation with daily gas exchanges. After incubation, a Multi-Flo liquid dispenser transferred SYBR Green lysis buffer to the wells, and the plates were incubated for another 24 h at room temperature to achieve optimal development of fluorescence signal, which was read by an Envision Multimode Reader (PerkinElmer, MA).

HepG2 cells = experiment: HepG2 cytotoxicity; assay type: cell-based, human; conditions: for HepG2 Cytotoxicity, half-maximal cytotoxicity concentration: HepG2 cells
Method: A previously described method was utilized to evaluate cytotoxicity against HepG2 and HEK293T cells as a measure of general human toxicity [52]. Assay data generated for Plasmodium was analyzed with a Genedata Screener (v13.0-Standard). Inhibitors (puromycin for cytotoxicity and atovaquone for liver-stage parasites) were subtracted from neutral controls to normalize data. The Smart Fit function of the Genedata Analyzer generated dose-response curves that were used to calculate the half-maximal effective concentrations (EC50).

[3] = Plasmodium berghei, HepG2, 48 h, sporozoites from University of California San Diego (UCSD), 48 h
[4] = Plasmodium berghei, HepG2, 48 h, sporozoites from the University of Georgia (UGA), 48 h
[5] = read-out: Blood-Stage P. falciparum half-maximal effective concentration (EC50), asexual blood-stage, strain Dd2L, 72 h, SYBR Green
[6] = Plasmodium berghei, HepG2, 48 h

SMILES	HEK293T Cytotoxicity, half-maximal cytotoxicity concentration (HEK293T cells)	pEC50 [1, 3]	pEC50 [1, 4]	blood-stage antimalarial activity (in words) [2]	pEC50 [2, 5]	HepG2 Cytotoxicity, half-maximal cytotoxicity concentration (HepG2 cells)	also measured
O=C1C(O)=C([C@H]2CC[C@H](c3ccc(Cl)cc3)CC2)C(=O)c2ccccc21 [Atovaquone, reference compound]	>2.0 µM	8.43	8.77	–	–	–	pEC50 ([1]; Plasmodium berghei, HepG2, 48 h, sporozoites sourced from New York University (NYU) School of Medicine, 48 h): > 9.55
CCCCCC1NC(=O)c2csc(n2)C(C)NC(=O)C(Cc2ccc(OC)cc2)N(C)C(=O)C(Cc2ccc(OC)cc2)N(C)C(=O)C(C(C)C)NC(=O)C1C (stereo not shown) [Compound 1, kakeromamide B]	>23 µM	< 4.92	4.96	only moderately active	5.05	>23 µM	effect on mammalian actin polymerization (in words) (rabbit muscle actin; dose dependence): stimulated actin polymerization in a dose-dependent manner; effect on actin polymerization relative to controls (rabbit muscle actin; highest tested concentration, 25 µM, Figure S23): enhancing actin polymerization; effect on actin polymerization relative to controls (rabbit muscle actin; lowest tested concentration, 0.025 µM, Figure S23): moderately suppressed polymerization; cytotoxicity against HepG2 / human liver cells (in words) (HepG2 cells; HepG2 human cell line): did not exhibit toxicity; cytotoxicity against HEK293T (in words) (HEK293T cells; HEK293T human cell line): did not exhibit toxicity
CCC[C@H]1NC(=O)c2csc(n2)[C@H](C)NC(=O)[C@H](C(C)C)N(C)C(=O)[C@H](Cc2ccccc2)N(C)C(=O)[C@H](C)OC(=O)[C@@H]1C [Compound 2, ulongamide A]	>4.8 µM	–	–	–	–	–	pEC50 ([2]; read-out: Blood-Stage P. falciparum half-maximal effective concentration (EC50)): 6.00; pEC50 [1, 6]: < 5.40
CC[C@H](C)[C@@H]1NC(=O)CNC(=O)c2csc(n2)[C@H](C(C)(C)O)OC(=O)C(C)(C)[C@H](CCCC(C)(Cl)Cl)OC(=O)c2csc1n2 [Compound 3, lyngbyabellin A]	19 µM	–	–	–	8.82	3.3 µM	selectivity index for Plasmodium versus HepG2 (HepG2 cells; blood-stage P. falciparum versus human liver carcinoma cells (HepG2)): 2,200; selectivity index for Plasmodium versus HEK293T (HEK293T cells; blood-stage P. falciparum versus normal kidney epithelial cells (HEK293T)): 13,000; pEC50 [1, 6]: < 5.00; pEC50 ([1]; sporozoites from University of California San Diego (UCSD), 48 h): < 5.00
CO[C@@H]1[C@@H](OC)[C@H](C)O[C@@H](O[C@@H]2C[C@@H]3CC[C@H](C)[C@@H](O)C[C@](C)(CC/C=C/C=C/Br)OC(=O)C[C@](O)(C2)O3)[C@@H]1OC [Compound 4, 18E-lyngbyaloside C]	>31 µM	< 4.80	5.15	inactive	< 4.72	17 µM	–
CO[C@@H]1[C@@H](OC)[C@H](C)O[C@@H](O[C@@H]2C[C@H]3O[C@@](O)(C2)[C@H](C)C(=O)O[C@@H](/C=C/C=C/Br)C[C@@H](C)/C=C\C[C@H](O)[C@@H]3C)[C@@H]1OC [Compound 5, lyngbyaloside]	>13 µM	< 5.20	5.35	inactive	< 5.10	>13 µM	–
CC1(C)c2nc(-c3ccc(F)cc3)c(Nc3ccc(F)cc3)n2CCN1C(=O)CN [ganaplacide, reference compound]	–	–	–	–	8.23	–	–
C/C1=C/C(=O)O[C@@H]2C[C@@H](CC[C@H](C)/C=C\C=C\CC1)O[C@@](O)([C@@H]1CSC(=O)N1)C2 [latrunculin A, reference compound]	–	–	–	–	–	–	concentrations at which actin polymerization was suppressed (rabbit muscle actin; Figure S23): above 1.2 µM
OC(c1cc(C(F)(F)F)nc2c(C(F)(F)F)cccc12)C1CCCCN1 (stereo not shown) [mefloquine, reference compound]	–	–	–	–	8.54	–	–

From PMC7142784, “Antimalarial Peptide and Polyketide Natural Products from the Fijian Marine Cyanobacterium Moorea producens” (Marine Drugs, 2020)
